Experimental data taken from patent publication US11357742B2, “Methods for treating cancer” (X4 Pharmaceuticals, Inc., priority 2015, dated 2022).

How the values were obtained:
[1] = test system: 786-0 and A498 RCC xenografts; assay: Murine models with human RCC cell line xenografts (tumor size, IHC, IF, flow cytometry); type: in vivo, mice; conditions: 786-0 and A498 xenografts
Method: With each of the human cell lines, 1×10^7 tumor cells were implanted subcutaneously in the flanks of 36 nude/beige mice and tumors allowed to grow to roughly 7 mm in diameter. […] Therefore, on day 7, the mice were sacrificed and the tumors were measured and immediately excised and divided into three parts. One part of each tumor was paraffin-embedded for dual color immunofluorescence. Another part was mechanically disaggregated and treated with collagenase/DNAse to generate a single cell suspension for flow cytometry. The third part was frozen for future pharmacokinetic analysis. Microscope slides were made from the paraffin-embedded tumor tissue, which were stained with antibodies against CD11b, Gr-1, and FAP. The number of infiltrating CD11b+/Gr-1+ MDSC and FAP+ fibroblasts present in the tumor tissue was then determined by immunofluorescence (IF) as previously described (1).
The disaggregated tumor specimens were analyzed for CD11b+/Gr-1+ MDSC and FAP+ fibroblasts by flow cytometry. The fraction of both populations expressing CXCR4 were also determined. […] One part was disaggregated into single cell suspensions and analyzed by flow cytometry as above for MDSC. […] Finally, a bone marrow (BM) sample was generated by extruding marrow from an excised femur with a syringe filled with saline and analyzed by flow cytometry for MDSC.

[2] = cited from earlier work
[3] = oral; see current product label; cited from earlier work
mir-30a and mir-30c = conditions: 786-0 xenograft tumor, after 8 days of treatment
Excerpt: Data is presented as mir-30a or mir-30c expression relative to the mean control value (left side) and relative HIF-2α RNA expression.

[4] = test system: renal cell carcinoma (RCC) xenografts; conditions: cited from earlier work
[5] = concurrent administration with sunitinib

| SMILES | effects on tumor growth ([1]; nude/beige mice, day 7, axitinib 30 mg/kg daily by gavage) | MDSC infiltration of tumors ([1]; CD11b+/Gr-1+ cells) | partition coefficient (n-octanol/water) [2] | effect of food on absorption [3] | mir-30a and mir-30c expression (mir-30a and mir-30c) | development of sunitinib resistance [4, 5] | influx of MDSC [4, 5] | HIF-2 expression ([4]; in vivo) |
| --- | --- | --- | --- | --- | --- | --- | --- | --- |
| CNC(=O)c1ccccc1Sc1ccc2c(/C=C/c3ccccn3)n[nH]c2c1 [axitinib, N-methyl-2-[3-((E)-2-pyridin-2-yl-vinyl)-1H-indazol-6-ylsulfanyl]-benzamide] | no | extensive MDSC infiltration | 3.5 | not altered by food | suppressed | – | – | – |
| CC(C)(C)C[C@H]1N[C@@H](C(=O)NCC[C@H](O)CO)[C@H](c2ccc(F)c(Cl)c2)[C@@]12C(=O)Nc1cc(Cl)c(F)cc12 [MI-319] | – | – | – | – | – | prevented | prevented | suppresses |
